pIC50: −log10 of the molar value. Values joined by “and” are separate entries in the source; they are usually repeats but may differ in a detail not shown here. Equal values may be shown once.

The target of test [1] is T1, Protein deacetylase HDAC6 (Homo sapiens, UniProt Q9UBN7).
T1 sequence (Q9UBN7 whole entry): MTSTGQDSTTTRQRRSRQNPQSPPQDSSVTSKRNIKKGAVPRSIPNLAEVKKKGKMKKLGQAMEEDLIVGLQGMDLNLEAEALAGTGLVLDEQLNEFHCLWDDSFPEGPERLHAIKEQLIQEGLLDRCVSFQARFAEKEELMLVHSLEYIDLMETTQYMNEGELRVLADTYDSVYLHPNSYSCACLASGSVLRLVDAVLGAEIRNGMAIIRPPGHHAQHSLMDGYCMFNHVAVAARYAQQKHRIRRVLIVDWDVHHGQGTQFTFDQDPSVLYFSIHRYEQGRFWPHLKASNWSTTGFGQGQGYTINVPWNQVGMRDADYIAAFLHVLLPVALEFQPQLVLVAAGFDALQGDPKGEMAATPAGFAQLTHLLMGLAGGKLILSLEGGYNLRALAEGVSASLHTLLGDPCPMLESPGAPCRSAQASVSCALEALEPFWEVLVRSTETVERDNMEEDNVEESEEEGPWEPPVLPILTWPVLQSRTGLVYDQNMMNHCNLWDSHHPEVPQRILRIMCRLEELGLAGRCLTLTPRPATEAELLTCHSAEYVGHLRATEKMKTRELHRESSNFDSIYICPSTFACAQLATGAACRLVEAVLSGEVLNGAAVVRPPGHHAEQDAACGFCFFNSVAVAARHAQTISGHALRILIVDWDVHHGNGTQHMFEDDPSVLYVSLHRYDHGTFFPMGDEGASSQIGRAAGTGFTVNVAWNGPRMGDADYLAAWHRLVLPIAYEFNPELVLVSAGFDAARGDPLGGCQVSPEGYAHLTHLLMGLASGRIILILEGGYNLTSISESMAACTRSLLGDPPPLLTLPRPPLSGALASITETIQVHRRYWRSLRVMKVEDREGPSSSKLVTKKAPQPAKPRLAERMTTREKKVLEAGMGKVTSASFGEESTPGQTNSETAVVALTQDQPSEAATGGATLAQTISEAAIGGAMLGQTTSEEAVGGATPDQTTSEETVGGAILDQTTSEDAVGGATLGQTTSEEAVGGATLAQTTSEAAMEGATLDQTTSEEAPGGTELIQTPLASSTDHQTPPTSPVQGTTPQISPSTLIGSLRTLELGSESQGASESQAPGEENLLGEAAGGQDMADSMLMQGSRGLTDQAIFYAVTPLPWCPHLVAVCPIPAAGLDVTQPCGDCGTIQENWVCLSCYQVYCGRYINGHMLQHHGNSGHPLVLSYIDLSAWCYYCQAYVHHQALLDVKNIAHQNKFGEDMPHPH

In test [2] the target is Protein deacetylase HDAC6 (Homo sapiens) (UniProt Q9UBN7). As to conditions: at 10 µM.
Test [3] addresses T2, Protein deacetylase HDAC6 (Homo sapiens) (UniProt Q9UBN7).
T2 sequence (whole entry): T1 sequence (Q9UBN7 whole entry)
As to conditions: at 10 µM. This is another data set of the same source.

For test [4], the target named is T1, Protein deacetylase HDAC6. The source holds these as a separate data set.

In test [1], FLUPENTIXOL [listing 1 of 2 here] showed a pIC50 of 5.81. Take PHENYLMERCURIC ACETATE: the inhibition in test [2] came to 60.2%. Turning to `Cc1cccc(/C=C/c2ccccc2)n1`, in test [3], the inhibition amounted to 111%. Also, the pIC50 in test [4] was 6.46. In the same order, the values of `O=c1c2c[nH]c3ccccc3c-2nn1-c1ccc(Cl)cc1` are 106% and 5.97. `Cc1nc2ccc(NC(=O)Nc3ccnc4cccnc34)cc2o1`: the inhibition in test [3] was 95.3%. Further, the pIC50 in test [4] is 5.84. As for `O=C(Nc1cc2cc[nH]c2cn1)c1ccccc1`, the inhibition in test [3] was determined as 102%. In addition, the pIC50 in test [4] is 6.73.

On to `O=c1c(-c2ccc(O)cc2)coc2cc(O)cc(O)c12` [GENISTEIN], for which, in test [3], the inhibition was 101%. In test [4], this compound had a negative-log IC50 (pIC50) of 5.72. Consider `COc1ccc(-c2coc3cc(O)ccc3c2=O)cc1` [FORMONONETIN], for which, in test [3], the inhibition turned out to be 102%. Further, the pIC50 in test [4] was 6.54 and 6.23.

With `CN(C)CCOC1=Cc2ccccc2Sc2ccc(Cl)cc21` [ZOTEPINE], in test [3], the inhibition was 105%. The pIC50 in test [4] is 6.22. In the same order, the values of `Cc1c(Nc2ncccc2C(=O)O)cccc1C(F)(F)F` [FLUNIXIN] are 81.6% and 6.10.

On to `Cc1cc(/C=C2\SC(=O)N(c3ccccc3)C2=O)c(C)n1-c1cccnc1`, for which the inhibition in test [3] was determined as 106%. In test [4], this compound showed a pIC50 of 6.29. For `CCc1ccc(OCc2ccccc2C(=O)Nc2ccc3nc(C)cc(N)c3c2)cc1`, in test [3], the inhibition was 78.9%. This compound had a negative logarithm of the IC50 (pIC50) in test [4] of 5.46. Take `CN1CC(=O)N=C1NC(=O)Nc1cccc(Cl)c1` [FENOBAM ANHYDROUS]: in test [3], the inhibition is 79.2%. Also, in test [4], the pIC50 was 6.17. In the case of `Oc1cc(O)cc(/C=C/c2ccc(O)c(O)c2)c1` [PICEATANNOL], the inhibition in test [3] was determined as 105%. The compound further had a negative-log IC50 (pIC50) in test [4] of 6.05. Take `O=c1sn(-c2cccc3ccccc23)c(=O)n1Cc1ccccc1` [TIDEGLUSIB]: in test [3], the inhibition is 87.4%. The pIC50 in test [4] was 6.00.

Take `CC(C)(C)c1ccc(-c2nc3ccccc3[nH]2)cc1`: the inhibition in test [3] amounted to 103%. This compound had a negative-log IC50 (pIC50) in test [4] of 6.53. On to `CNC(=O)c1ccccc1Sc1ccc2c(/C=C/c3ccccn3)n[nH]c2c1` [AXITINIB], for which the inhibition in test [3] turned out to be 103%. The pIC50 in test [4] was 6.39. On to `CC(C)c1ccc(-c2cc(=O)c3ccccc3o2)cc1`, for which the inhibition in test [3] was determined as 99.4%. The negative logarithm of the IC50 (pIC50) in test [4] was 5.82. As for FLUPENTIXOL [listing 2 of 2 here], the inhibition in test [2] is 89.4%. For the compound `O=C1Nc2cc(Br)ccc2/C1=C1/Nc2ccccc2/C1=N\O` [6BIO], the inhibition in test [3] is 89.8%. The negative logarithm of the IC50 (pIC50) in test [4] is 6.16.

As a reminder, the pIC50 is the negative decadic logarithm of the IC50, by convention in mol/L. One may read the inhibition as the relative decrease from the control value, in per cent.

The values are drawn from ChEMBL document CHEMBL4808148, “HDAC6 screening dataset using tau-based substrate in an enzymatic assay yields selective inhibitors and activators” (2021).
